Test results taken from patent publication US9593140B2, “Antibacterial tylosin derivatives and methods for their preparation” (Bayer Intellectual Property GmbH, priority 2011, dated 2017).
≈ marks a conversion by molar mass, not a printed value.

Key:
Format in all cases: cell-based
[1] = tested on: Mannheimia Haemolytica, 3 isolates; test: Minimal inhibitory concentrations, cattle pathogen isolates; conditions: for MIC: Mannheimia haemolytica
Protocol: (§1) The antibacterial activity by the compounds of the present invention may be measured using a number of assays available in the art. […] Minimal inhibitory concentrations (MICs) were determined against the most prevalent pathogens in cattle (Mannheimia Haemolytica, 3 isolates) and swine (A. pleuropneumoniae, 6 isolates).The results are summarized in Table 7.

[2] = tested on: A. pleuropneumoniae, 6 isolates; test: Minimal inhibitory concentrations, swine pathogen isolates
Protocol: as §1

[3] = tested on: Mannhemia hemolytica KB346; test: Paper disc assay, M. hemolytica KB346 (Tilmicosin-low sensitivity strain); conditions: Table 5; 100 mg/6 mm disk
Protocol: (§2) (1) Antibacterial Activities Against Mannheimia and Pasteurella were Determined by the Following Steps:
(§3) 1) M. hemolytica KB345 (Tilmicosin-sensitivity strain) and M. hemolytica KB346 (Tilmicosin-low sensitivity strain) were provided. KB 345 strain stored at −80° C. was seeded to BHIB agar medium (10 mL) by using Microbank beads (Pro-Lab) and platinum nail. After statically incubating the KB 345 strain for 24 hours at 37° C., it was seeded to maintaining slant BHIB agar medium (7 mL) by using platinum loop, further statically incubated for 24 hours at 37° C. to obtain slant. One platinum loop of KB 345 strain stored at the slant was inoculated into a large test tube charged with BHIB liquid medium (10 mL) and then incubated for 24 hours at 37° C. with shaking.
(§4) 2) A paper disc (ADVANTEC, Φ:6 mm) was impregnated with a solution of test compound and dried under reduced pressure.
(§5) 3) To a melted BHIB agar medium was inoculated 1% of the broth obtained from step 1) above to prepare a test plate. After the medium set, the paper disc prepared in step 2) above was put on the plate and it was incubated at 37° C.
(§6) 4) After one day, the inhibition zone diameter and clarity (A to E) were determined.
For KB346 strain, the same procedures were repeated.

[4] = tested on: Mannhemia hemolytica KB345; test: Paper disc assay, M. hemolytica KB345 (Tilmicosin-sensitivity strain); conditions: for Inhibition zone (mm): Table 4; for zone of inhibition at 1 mg/disc: 1 mg/6 mm disk
Protocol: as §2, §3, §4, §5, §6

[5] = tested on: Bacillus subtilis ATCC6633; test: Paper disc assay, Bacillus subtilis (S)
Protocol: (§7) (2) Antibacterial activities against other bacteria were determined with Micrococcus luteus ATCC9341 (1), Bacillus subtilis […] (s), Escherichia coli NIHJ (c), Xanthomonas campestris KB88 (X), Mucor racemosus IFO 4581 (Mu) and Candida albicans ATCC 64548 (Ca).
(§8) Bacillus subtilis ATCC6633 was incubated in Davis synthetic medium and then the seed broth was combined with the medium in the ratio of 1:99 to obtain a test plate. Micrococcus luteus ATCC9341, Escherichia coli NIHJ and Xanthomonas campestris KB88 were respectively incubated in Nutrient agar medium and inoculated at 0.2%, 0.5% and 1.0%. Mucor racemosus IFO 4581 and Candida albicans ATCC 64548 were respectively incubated in GY agar medium and then inoculated at 0.3% and 0.2%.
(§9) A paper disc (ADVANTEC, Φ:6 mm) was impregnated with a solution of test compound and dried under reduced pressure. The paper disc was put on the test plate and it was incubated for 24 hours at 37° C. After incubation, the inhibition zone diameter and clarity (A to E) were determined.

[6] = tested on: Escherichia coli NIHJ; test: Paper disc assay, Escherichia coli (c)
Protocol: as §7, §8, §9

[7] = tested on: Xanthomonas campestris KB88; test: Paper disc assay, Xanthomonas campestris (X)
Protocol: as §7, §8, §9

[8] = tested on: Micrococcus luteus ATCC9341; test: Paper disc assay, Micrococcus luteus (l)
Protocol: as §7, §8, §9

SMILES	MICs ([2]; pleuropneumoniae isolate 2)	MICs ([2]; pleuropneumoniae isolate 3)	MICs ([2]; pleuropneumoniae isolate 4)	MICs ([2]; pleuropneumoniae isolate 5)	MICs ([2]; pleuropneumoniae isolate 6)	Inhibition zone (mm) ([5]; 0.1 mg/6 mm disc)	Inhibition zone (mm) ([5]; 1 mg/6 mm disc)	Inhibition zone (mm) ([5]; 10 mg/6 mm disc)	zone of inhibition at 1 mg/disc ([4]; 24 h, Table 2)	zone of inhibition at 3 mg/disc ([4]; 24 h, Table 2, 3 mg/6 mm disk)	Inhibition zone (mm) ([6]; 10 mg/6 mm disc)	Inhibition zone (mm) ([7]; 0.1 mg/6 mm disc)	Inhibition zone (mm) ([7]; 1 mg/6 mm disc)	Inhibition zone (mm) ([7]; 10 mg/6 mm disc)	Inhibition zone (mm) ([8]; 0.1 mg/6 mm disc)	Inhibition zone (mm) ([8]; 1 mg/6 mm disc)	Inhibition zone (mm) ([8]; 10 mg/6 mm disc)	further results
CC[C@H]1OC(=O)C[C@@H](O)[C@H](C)[C@@H](O[C@@H]2O[C@H](C)C(O)C(N(C)C)C2O)[C@@H](CC=O)C[C@@H](C)C(=O)/C=C/C(C)=C/[C@@H]1Cn1cc(-c2ccc(-c3ccccc3)cc2)nn1 (stereo partly drawn) [YT104, 23-(4-biphenyl-1H-1,2,3-triazol-1-yl)-23-Deoxy-5-O-mycaminosyltylonolide]	>16 µg/mL	>16 µg/mL	>16 µg/mL	>16 µg/mL	>16 µg/mL													MIC ([1]; M. haemolytica isolate 1): 8 µg/mL (≈ 9.99 µM); MIC ([1]; M. haemolytica isolate 2): 4 µg/mL (≈ 4.99 µM); MIC ([1]; M. haemolytica isolate 3): 8 µg/mL (≈ 9.99 µM); MIC ([2]; Actinobacillus pleuropneumoniae, pleuropneumoniae isolate 1): > 16 µg/mL
CC[C@H]1OC(=O)C[C@@H](O)[C@H](C)[C@@H](O[C@@H]2O[C@H](C)[C@@H](O)[C@H](N(C)C)[C@H]2O)[C@@H](CCn2cc(-c3ccccc3)nn2)C[C@@H](C)C(=O)/C=C/C(C)=C/[C@@H]1CO [YT112, 20-(4-phenyl-1H-1,2,3-triazol-1-yl)-20-deoxo-5-O-mycaminosyltylonolide]	4 µg/mL	4 µg/mL	8 µg/mL	4 µg/mL	8 µg/mL													Inhibition zone (mm) [3]: 11.5 mm; MICs ([1]; M. haemolytica isolate 1): 8 µg/mL; MICs ([1]; M. haemolytica isolate 2): 4 µg/mL; MICs ([1]; M. haemolytica isolate 3): 8 µg/mL; Inhibition zone (mm) ([4]; 3 mg/6 mm disk): 17.0 mm; Inhibition zone (mm) ([4]; 10 mg/6 mm disk): 20.0 mm; Inhibition zone (mm) ([4]; 30 mg/6 mm disk): 25.0 mm; Inhibition zone (mm) ([4]; 100 mg/6 mm disk): 29.0 mm; MICs ([2]; pleuropneumoniae isolate 1): 4 µg/mL
CC[C@H]1OC(=O)C[C@@H](O)[C@H](C)[C@@H](O[C@@H]2O[C@H](C)[C@@H](O)[C@H](N(C)C)[C@H]2O)[C@@H](CCn2cc(-c3ccsc3)nn2)C[C@@H](C)C(=O)/C=C/C(C)=C/[C@@H]1CO[C@@H]1O[C@H](C)[C@@H](O)[C@@H](OC)[C@H]1OC [YT14, 20-(4-(thiophene-3-yl)-1H-1,2,3-triazol-1-yl)-20-deoxodesmycosin]						8 mm	11 mm	15 mm	11 mm	14 mm	7 mm	7 mm	16 mm	22 mm	13.5 mm	20.5 mm	26.5 mm	zone of inhibition at 10 mg/disc ([4]; 24 h, Table 2, 10 mg/6 mm disk): 16.5 mm; zone of inhibition at 30 mg/disc ([4]; 24 h, Table 2, 30 mg/6 mm disk): 19.5 mm; zone of inhibition at 100 mg/disc ([4]; 24 h, Table 2, 100 mg/6 mm disk): 22 mm
CC[C@H]1OC(=O)C[C@@H](O)[C@H](C)[C@@H](O[C@@H]2O[C@H](C)[C@@H](O)C(N(C)C)C2O)[C@@H](CCN2CC(C)CC(C)C2)C[C@@H](C)C(=O)/C=C/C(C)=C/[C@@H]1CO[C@@H]1OC(C)[C@@H](O)[C@H](OC)C1OC (stereo partly drawn) [Tilmicosin, reference compound]						14 mm	11 mm	18 mm	10.7 mm	13.5 mm	20 mm	12 mm	20 mm	30 mm	12 mm	19 mm	27.5 mm	Inhibition zone (mm) ([6]; 1 mg/6 mm disc): 13 mm
